Assay results: US10072011B2, “Substituted bridged urea analogs as sirtuin modulators” (GlaxoSmithKline Intellectual Property (No.2) Limited, priority 2014, dated 2018)

Target: T1, SIRT1 (Homo sapiens, UniProt Q96EB6)
T1 sequence (Q96EB6 1-747): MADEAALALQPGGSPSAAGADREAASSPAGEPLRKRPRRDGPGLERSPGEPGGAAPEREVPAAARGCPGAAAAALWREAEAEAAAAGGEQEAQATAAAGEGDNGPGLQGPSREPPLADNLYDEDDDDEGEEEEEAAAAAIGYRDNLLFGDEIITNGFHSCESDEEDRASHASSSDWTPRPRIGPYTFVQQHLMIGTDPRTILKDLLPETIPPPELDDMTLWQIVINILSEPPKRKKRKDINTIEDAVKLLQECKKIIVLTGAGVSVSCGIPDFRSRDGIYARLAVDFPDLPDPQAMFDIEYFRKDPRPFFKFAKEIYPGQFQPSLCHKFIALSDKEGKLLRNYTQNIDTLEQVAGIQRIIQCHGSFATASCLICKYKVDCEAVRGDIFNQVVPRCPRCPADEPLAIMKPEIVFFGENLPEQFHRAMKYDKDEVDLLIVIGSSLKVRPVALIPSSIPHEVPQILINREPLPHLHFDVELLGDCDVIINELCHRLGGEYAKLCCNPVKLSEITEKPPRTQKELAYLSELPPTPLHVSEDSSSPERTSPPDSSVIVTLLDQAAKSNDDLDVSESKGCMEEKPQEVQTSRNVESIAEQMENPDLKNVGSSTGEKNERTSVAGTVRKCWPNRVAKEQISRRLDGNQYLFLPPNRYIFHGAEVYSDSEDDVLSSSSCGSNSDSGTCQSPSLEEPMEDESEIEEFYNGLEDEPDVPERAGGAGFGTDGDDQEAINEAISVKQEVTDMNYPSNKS
Assay: Trp mass spectrometry assay of SIRT1 activation (Ac-R-H-K-K(Ac)-W-NH2 peptide)
Format: biochemical
Conditions: Trp peptide 0.5 μM, 120 μM βNAD+, 10 nM SIRT1, 25 min at 25° C.; for Emax: 25 min, read-out: TRP MAX RESP (percent maximum fold activation); for Emax / TRP MAX RESP (percent maximum fold activation): relative to control (100%)
Procedure: The Trp mass spectrometry assay was conducted as follows. […] The SIRT1 protein was obtained by cloning the SirT1 gene into a T7-promoter containing vector, which was then expressed in BL21(DE3) bacterial cells and purified as described in further detail below. Test compound was added at varying concentrations to this reaction mixture and the resulting reactions were monitored. After the 25 minute incubation with SIRT1, 10 μL of 10% formic acid was added to stop the reaction. The resulting reactions were sealed and frozen for later mass spec analysis. The relative SIRT1 activity was then determined by measuring the amount of O-acetyl-ADP-ribose (OAADPR) formed (or, alternatively, the amount of deacetylated Trp peptide generated) by the NAD-dependent sirtuin deacetylation reaction in the presence of varying concentrations of the test compound versus control reactions lacking the test compound. The degree to which the test agent activated deacetylation by SIRT1 was expressed as EC1.5 (i.e., the concentration of compound required to increase SIRT1 activity by 50% over the control lacking test compound), and Percent Maximum Activation (i.e., the maximum activity relative to control (100%) obtained for the test compound).
This time point was the same as that used for test compounds and, within the linear range, the endpoint represents a change in velocity.
For the above assay, SIRT1 protein was expressed and purified as follows. The SirT1 gene was cloned into a T7-promoter containing vector and transformed into BL21(DE3). The protein was expressed by induction with 1 mM IPTG as an N-terminal His-tag fusion protein at 18° C. overnight and harvested at 30,000×g. Cells were lysed with lysozyme in lysis buffer (50 mM Tris-HCl, 2 mM Tris[2-carboxyethyl]phosphine (TCEP), 10 μM ZnCl2, 200 mM NaCl) and further treated with sonication for 10 min for complete lysis. The protein was purified over a Ni-NTA column (Amersham) and fractions containing pure protein were pooled, concentrated and run over a sizing column (Sephadex S200 26/60 global). The peak containing soluble protein was collected and run on an Ion-exchange column (MonoQ). Gradient elution (200 mM-500 mM NaCl) yielded pure protein. This protein was concentrated and dialyzed against dialysis buffer (20 mM Tris-HCl, 2 mM TCEP) overnight. The protein was aliquoted and frozen at −80° C. until further use.
“NT” means not tested; “ND” means not determinable.

Row | Structure (SMILES) | TRP Activity (EC1.5, concentration of test compound that results in 150% activation of SIRT1) | Emax | TRP MAX RESP (percent maximum fold activation)
1 | O=C(NC1CC1(F)F)c1ccc2c(n1)N(C(=O)Nc1ccc(F)cn1)[C@H]1CCN2C1 (single isomer, unassigned) [Example 243] | A (EC1.5<1 μM) | – | –
2 | O=C(NC1CC1(F)F)c1ccc2c(n1)N(C(=O)Nc1cc(OC[C@H](O)CO)ccn1)[C@H]1CCN2C1 (single isomer, unassigned) [Example 245] | A (EC1.5<1 μM) | > 150% | –
3 | O=C(NC(CCO)C(F)(F)F)c1ccc2c(n1)N(C(=O)Nc1ccccn1)[C@H]1CCN2C1 (single isomer, unassigned) [Example 248] | B (EC1.5 1-25 μM) | – | A (Fold activation≥150%)
4 | NC(CNC(=O)c1ccc2c(n1)N(C(=O)Nc1ccccn1)[C@H]1CCN2C1)C(F)(F)F (single isomer, unassigned) [Example 249] | B (EC1.5 1-25 μM) | – | –
5 | O=C(N[C@@H]1CC1(F)F)c1ccc2c(n1)N(C(=O)Nc1cnc(OC[C@H](O)CO)cn1)[C@H]1CCN2C1 (single isomer, unassigned) [Example 260] | B (EC1.5 1-25 μM) | > 150% | –
6 | O=C(NC1CC1(F)F)c1ccc2c(n1)N(C(=O)Nc1cc(OCCO)ccn1)[C@H]1CCN2C1 (single isomer, unassigned) [Example 262] | A (EC1.5<1 μM) | > 150% | –
7 | O=C(NC1CC1(F)F)c1ccc2c(n1)N(C(=O)Nc1cc(OCCO)ccn1)[C@H]1CCN2C1 (single isomer, unassigned) [Example 263] | B (EC1.5 1-25 μM) | – | A (Fold activation≥150%)
8 | O=C(NC1CC1(F)F)c1ccc2c(n1)N(C(=O)Nc1cccnn1)[C@H]1CCN2C1 (single isomer, unassigned) [Example 270] | A (EC1.5<1 μM) | > 150% | –
9 | O=C(NC1CC1(F)F)c1ccc2c(n1)N(C(=O)Nc1cccnn1)[C@H]1CCN2C1 (single isomer, unassigned) [Example 271] | B (EC1.5 1-25 μM) | – | A (Fold activation≥150%)
10 | O=C(NC1CC1(F)F)c1ccc2c(n1)N(C(=O)Nc1cnccn1)[C@H]1CCN2C1 (single isomer, unassigned) [Example 272] | A (EC1.5<1 μM) | > 150% | –
11 | O=C(NC1CC1(F)F)c1ccc2c(n1)N(C(=O)Nc1cnccn1)[C@H]1CCN2C1 (single isomer, unassigned) [Example 273] | B (EC1.5 1-25 μM) | – | A (Fold activation≥150%)
12 | COc1ccnc(NC(=O)N2c3nc(C(=O)N[C@@H]4CC4(F)F)ccc3N3CC[C@H]2C3)c1 (single isomer, unassigned) [Example 274] | B (EC1.5 1-25 μM) | > 150% | –
13 | COc1cc(NC(=O)N2c3nc(C(=O)NC4CC4(F)F)ccc3N3CC[C@H]2C3)ncn1 (single isomer, unassigned) [Example 298] | B (EC1.5 1-25 μM) | < 150% | –
14 | C[C@@H](NC(=O)c1ccc2c(n1)N(C(=O)Nc1cc(CCC(O)CO)ccn1)[C@H]1CCN2C1)C(F)(F)F (single isomer, unassigned) [Example 302] | A (EC1.5<1 μM) | < 150% | –
15 | COc1cc(NC(=O)N2c3nc(C(=O)NC4CC4(F)F)ccc3N3CC[C@H]2C3)ncn1 (single isomer, unassigned) [Example 303] | A (EC1.5<1 μM) | – | B (Fold Activation<150%)
16 | O=C(NC1CC1(F)F)c1ccc2c(n1)N(C(=O)Nc1cc(OC[C@H](O)CO)ccn1)[C@H]1CCN2C1 (single isomer, unassigned) [Example 306] | B (EC1.5 1-25 μM) | – | B (Fold Activation<150%)
17 | NC(CNC(=O)c1ccc2c(n1)N(C(=O)Nc1cc(OC[C@H](O)CO)ccn1)[C@H]1CCN2C1)C(F)(F)F (single isomer, unassigned) [Example 317] | B (EC1.5 1-25 μM) | – | B (Fold Activation<150%)
18 | CCC(NC(=O)c1ccc2c(n1)N(C(=O)Nc1ccccn1)[C@H]1CCN2C1)C(F)(F)F (stereo in doubt) [Example 61, (4S)—N5-(pyridin-2-yl)-N7-((S)-1,1,1-trifluorobutan-2-yl)-3,4-dihydro-1,4-methanopyrido[2,3-b][1,4]diazepine-5,7(2H)-dicarboxamide] | A (EC1.5<1 μM) | > 150% | –
19 | O=C(NCC(F)(F)F)c1ccc2c(n1)N(C(=O)Nc1ccccn1)[C@H]1CCN2C1 [Example 1] | A (EC1.5<1 μM) | > 150% | –
20 | O=C(NC1CC1)c1ccc2c(n1)N(C(=O)Nc1ccccn1)[C@H]1CCN2C1 [Example 2, (4S)—N7-cyclopropyl-N5-(pyridin-2-yl)-3,4-dihydro-1,4-methano pyrido[2,3-b][1,4]diazepine-5, 7(2H)-dicarboxamide] | A (EC1.5<1 μM) | > 150% | –
21 | O=C(c1ccc2c(n1)N(C(=O)Nc1ccccn1)[C@H]1CCN2C1)N1CCC(F)(F)C1 [Example 3, (4S)-7-(3,3-difluoropyrrolidine-1-carbonyl)-N-(pyridin-2-yl)-3,4-dihydro-1,4-methanopyrido[2,3-b] [1, 4] diazepine-5(2H)-carboxamide] | B (EC1.5 1-25 μM) | > 150% | –
22 | O=C(NC1CCOCC1)c1ccc2c(n1)N(C(=O)Nc1ccccn1)[C@H]1CCN2C1 [Example 4, (4S)—N-5-(pyridin-2-yl)-N-7-(tetrahydro-2H-pyran-4-yl)-3,4-dihydro-1,4-methanopyrido [2,3-b] [1, 4] diazepine-5, 7(2H)-dicarboxamide] | B (EC1.5 1-25 μM) | > 150% | –
